Experimental data reported in patent US20080226639A1, “Heparin Binding Peptide” (Enkan Pharmaceuticals A/S, priority 2004, published 2008).
Residues, ends and D or L forms follow the SMILES beside them.

B1: Ig 2 module of NCAM: recombinant Ig2 module of NCAM prepared in the yeast P. pastoris expression system (protein)
chain: KLMFKNAPTPQEFKEGEDAVIVCDVVSSLPPTIIWKHKGRDVILKKDVRFIVLSNNYLQIRGIKKTDEGTYRCEGRILARGEINFKDIQVIVNV

How the values were obtained:
[1] = tested on: rat cerebella granular neurons (CGNs); test: Neurite outgrowth of CGNs in co-culture with fibroblasts with or without NCAM expression; assay type: cell-based; conditions: for neurite outgrowth of CGNs grown on fibroblasts without NCAM expression: CGNs on control fibroblasts without NCAM expression; for neurite outgrowth of CGNs grown on fibroblasts without NCAM expression / neurite outgrowth of CGNs grown on fibroblasts expressing NCAM: 24 h co-culture, different peptide concentrations (FIG. 1); for neurite outgrowth of CGNs grown on fibroblasts expressing NCAM: CGNs on monolayers of NCAM expressing fibroblasts
Experimental: Genetically modified fibroblasts (mouse fibroblastoid L-cells) with or without NCAM expression are seeded in eight-well LabTek tissue culture chamber slides (Nunc, Roskilde, Denmark) at a density 7×10^4 of cells/well and maintained at 37° C. and 5% CO2 in DMEM with 10% HS, 100 U/ml penicillin and 100 μg/ml streptomycin. 24 h after plating the medium is removed and CGNs (10^4 cells/well) are seeded on monolayers of fibroblasts with or without NCAM expression in Neurobasal-A medium containing 100 U/ml penicillin, 100 μg/ml streptomycin, 1% glutamax and supplemented with B27, and grown in co-culture for 24 hours, afterwards neurite outgrowth is measured. CGNs are prepared from postnatal day 3-4 rat pups according to Rønn, L. C., Doherty, P., Holm, A., Berezin, V., Bock, E. (2000). J. Neurochem. 75(2):665-71.

[2] = tested on: fibroblasts with or without NCAM expression (mouse fibroblastoid L-cells); test: Random cell motility of fibroblasts, time-lapse video-recording; assay type: cell-based; conditions: both NCAM expressing fibroblasts and control fibroblasts (FIG. 5)
Experimental: For evaluation the effect of the peptides on cell motility, confluent cultures of fibroblasts with or without NCAM expression are dislodged with 0.5 mg/ml of trypsin and 0.75 mM EDTA in a modified Puck's saline (Gibco BRL), seeded in six-well tissue culture plates (Nunc) at a density of 4×10^3 cells/cm^2 and grown for 24 h at 37° C. and at 5% CO2.
Random cell motility was evaluated by use of time-lapse video-recording and image analysis as described previously (Walmod, et al. (1998). Cell Motil Cytoskeleton. 40(3), 220-37). […]
Evaluation of cell motility and morphology is performed using the image processing software PRIMA. The positions of individual cells are determined by manual marking of the centers of the nuclei. […] The parameters of mean squared cell speed (Sτ), rate of diffusion (R), and locomotive index (LI) are determined according to Walmod, et al. (2000) (Methods Mol. Biology. 161, 59-83) as described below.
The displacement of a cell is the Euclidean distance between two points corresponding to the initial and final positions of the cell. […] The mean squared cell displacement of a cellular population after a given time (t1) of observation was calculated as […]
where P is the persistence time in direction (23). The mean cell speed, Sτ, was calculated as the ratio of the mean displacement of cells (<dτ>) to the time interval τ. […]

[3] = tested on: primary cerebellar granule neurons (CGNs); test: Neurite outgrowth in primary culture of single CGNs; assay type: cell-based, rat; conditions: single CGNs (FIG. 3); for maximal effect on neurite outgrowth: peptide immobilized on tissue culture plastic, coating concentration of 5 μg/ml
Experimental: Primary cerebellar granule neurons (CGNs) are prepared from postnatal day 3-4 rat pups according to Rønn, L. C., Doherty, P., Holm, A., Berezin, V., Bock, E. (2000). J. Neurochem. 75(2):665-71. Dissociated cerebella cells are grown at 37° C. and 5% CO2 in Neurobasal-A medium containing 20 mM Hepes, 100 U/ml penicillin, 100 μg/ml streptomycin, 1% glutamax and supplemented with B27 (all from Gibco BRL). For testing the effect of the peptides, CGNs are seeded in eight-well LabTech tissue chamber slides with a growth surface of Permanox plastic (Nunc) at a density of 10^4 cells/well in Neurobasal-A medium containing 100 U/ml penicillin, 100 μg/ml streptomycin, 1% glutamax and supplemented with B27. When treated with Heparinase III (1 U/ml), the enzyme is added to the culture medium immediately after plating. CGNs are treated with the enzyme for 1 h before addition of different concentrations (1 μg/ml, 5 μg/ml, and 20 μg/ml) of the peptides. After 24 h of culture, cells are fixed with paraformaldehyde, immunostained with primary mouse antibodies against CD90 (Thy-1) (1:200) (Caltag Laboratories, USA) (PC12-E2 cells) or GAP-43 (1:1000) (Chemicon, USA) (CGNs) and secondary Alexa Fluor®488 goat antibody against mouse IgG (1:1000) (Molecular Probes, Netherlands), and the length of neurites is measured by a stereological method as previously described (Ronn, L. C., Ralets, I., Hartz, B. P., Bech, M., Berezin, A., Berezin, V., Møller, A., Bock, E (2000). J Neurosci Methods. 100(1-2), 25-32).

[4] = biological target: T1, recombinant Trk B receptor (Homo sapiens, UniProt Q16620); test: BIAcore binding analysis to Trk B receptor; conditions: HBP or Ig2 module immobilized on sensor chip CM5, Trk B injected, 25° C., pH 7.4 (FIG. 7)
T1 construct: purchased RD Systems (USA)
Experimental: Recombinant the Ig2 module of NCAM was prepared using in the yeast P. pastoris expression system (Invitrogen, USA) as previously described (Kiselyov et al., Biol. Chem. 272, 10125-10134, 1997). Recombinant Trk B receptor was purchased from RD Systems (USA).
Binding analysis was performed using a BIAcoreX instrument (Biosensor AB) at 25° C. using 10 mM sodium phosphate pH 7.4, 150 mM NaCl as running buffer. The flow-rate was 5 μl/min. Data were analysed by non-linear curve-fitting using the manufacture's software. The HBP or recombinant Ig 2 module of NCAM were immobilized on a sensor chip CM5 using amine coupling kit (Biosensor AB) as follows: 1) the two halves of the chip (designated Fc1 and Fc2) were activated by 20 μl activation solution; 2) the protein was immobilized on Fc1 using 12 μl 20 μg/ml protein in 10 mM sodium phosphate buffer pH 6.0; 3) Fc1 and Fc2 were blocked by 35 μl blocking solution. Binding of Trk B to the immobilized HBP or the Ig module II of NCAM was studied as follows: Trk B was injected simultaneously into Fc1 (with the immobilized HBP or Ig module II of NCAM) and Fc2 (with nothing immobilized). The curve representing unspecific binding of the compound to the surface of Fc2 was subtracted from the curve representing binding of Trk B to the immobilized protein (HBP or the Ig 2 module of NCAM) and the surface of Fc1. […]

T1 sequence (Q16620 32-822): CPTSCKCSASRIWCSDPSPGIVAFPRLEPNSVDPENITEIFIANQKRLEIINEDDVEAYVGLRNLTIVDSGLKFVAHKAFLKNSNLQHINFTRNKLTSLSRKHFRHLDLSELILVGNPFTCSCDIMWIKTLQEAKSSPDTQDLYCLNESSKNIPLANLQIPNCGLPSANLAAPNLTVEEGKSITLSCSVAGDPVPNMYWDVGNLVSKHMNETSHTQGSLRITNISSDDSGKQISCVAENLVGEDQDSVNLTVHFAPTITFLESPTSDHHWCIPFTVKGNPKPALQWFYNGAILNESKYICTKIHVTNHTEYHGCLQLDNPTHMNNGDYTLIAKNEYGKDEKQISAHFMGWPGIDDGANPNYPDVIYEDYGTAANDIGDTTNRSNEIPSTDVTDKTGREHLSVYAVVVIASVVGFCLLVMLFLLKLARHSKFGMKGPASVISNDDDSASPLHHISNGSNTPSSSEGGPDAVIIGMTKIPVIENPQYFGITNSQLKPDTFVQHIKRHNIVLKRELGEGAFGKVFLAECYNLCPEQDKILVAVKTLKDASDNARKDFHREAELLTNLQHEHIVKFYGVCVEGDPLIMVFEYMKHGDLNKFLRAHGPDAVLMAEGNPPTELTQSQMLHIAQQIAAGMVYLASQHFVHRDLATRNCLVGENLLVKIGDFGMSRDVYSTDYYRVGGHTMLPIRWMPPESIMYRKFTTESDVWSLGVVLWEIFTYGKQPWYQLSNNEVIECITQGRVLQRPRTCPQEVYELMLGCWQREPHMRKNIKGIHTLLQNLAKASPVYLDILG

Kd [4] [nM] | Molecule | effect on NCAM mediated neurite outgrowth in co-cultures of CGNs with NCAM expressing fibroblasts, in the presence of HBP ([1]; NCAM expressing fibroblasts, HBP present (FIG. 2)) | effect on NCAM mediated neurite outgrowth in the absence of HBP ([1]; NCAM expressing fibroblasts, no HBP (FIG. 2)) | cell motility: rate of diffusion (R), mean cell speed (Sτ), locomotive index (LI) [2] | change of the neurite outgrowth effect by treatment with heparinase III ([3]; heparinase III 1 U/ml) | maximal effect on neurite outgrowth [3] [%] | neurite outgrowth of CGNs grown on fibroblasts without NCAM expression [1] | neurite outgrowth of CGNs grown on fibroblasts expressing NCAM [1] | neuritogenic effect on CGNs grown on control fibroblasts under treatment with SU5402 (FGFR inhibitor) ([1]; control fibroblasts without NCAM expression, plus SU5402 (FIG. 2))
– | Cc1c[nH]c(/C=C2\C(=O)Nc3ccccc32)c1CCC(=O)O [SU5402, reference compound] | only partially inhibited | blocks NCAM mediated neurite outgrowth | – | – | – | – | – | –
– | CC[C@H](C)[C@H](NC(=O)[C@H](Cc1ccccc1)NC(=O)[C@H](CCCNC(=N)N)NC(=O)[C@@H](NC(=O)[C@H](CC(=O)O)NC(=O)[C@H](CCCCN)NC(=O)[C@H](CCCCN)NC(=O)[C@H](CC(C)C)NC(=O)[C@@H](NC(=O)[C@@H](NC(=O)[C@H](CC(=O)O)NC(=O)[C@H](CCCNC(=N)N)NC(=O)CNC(=O)[C@@H](N)CCCCN)C(C)C)[C@@H](C)CC)C(C)C)C(N)=O [HBP, KGRDVILKKDVRFI] (H-KGRDVILKKDVRFI-NH2; N-terminus and C-terminus assumed) | – | – | clear inhibition of cell motility | reduced the effect of HBP | 680 | in a dose-dependent manner increases neurite outgrowth | in a dose-dependent manner increases neurite outgrowth | is not blocked by treatment with SU5402
– | KGRDVILAKDVRVI (HBP mutant (peptide M)) [HBP mutant, Lys-161 and Phe-166 substituted for Ala and Val] | – | – | inhibitory effect on the motile behaviour of fibroblasts similar to the effect of HBP | – | 400 | still stimulates neurite outgrowth | does not affect the neurite outgrowth response | –
1 to 10 | B1 | – | – | – | – | – | – | – | –
